{
  "source": "paper PMC8961538",
  "about": "“N-Acylated and N-Alkylated 2-Aminobenzothiazoles Are Novel Agents That Suppress the Generation of Prostaglandin E2” (Biomolecules, 2022)",
  "key": {"[1]": {"test_system": "PGE2 generation in CD4+ T cells", "design": "method as in PMID 25213337", "details": "cited from earlier work"}, "[2]": {"test_system": "allodynia after facial carrageenan injection", "details": "after facial carrageenan injection in mice; cited from earlier work"}, "[3]": {"test_system": "PGE2 generation in rat mesangial cells", "details": "cited from earlier work; for EC50: read-out: EC50, inhibition of PGE2 formation"}, "[4]": {"test_system": "PGE2 generation in rat mesangial cells", "experiment": "Suppression of IL-1β/forskolin-stimulated PGE2 generation in rat renal mesangial cells", "type": "cell-based", "details": "Rattus norvegicus, Mesangial cell, 24 h", "experimental": "Rat renal mesangial cells (clone MZ B1), isolated and characterized as previously described, were cultivated in RPMI 1640 medium supplemented with 10% fetal bovine serum; 10 mM 4-(2-hydroxyethyl)-1-piperazineethanesulfonic acid (HEPES), pH 7.4; 6 µg/mL of bovine insulin; 5 µg/mL of transferrin; 5 nM sodium selenite; 100 units/mL of penicillin; and 100 µg/mL of streptomycin. The cells were incubated for 4 h in Dulbecco’s modified Eagle’s medium (DMEM) containing 10 mM HEPES, pH 7.4, and 0.1 mg/mL of fatty acid-free bovine serum albumin (BSA), prior to stimulation.\nConfluent mesangial cells in 24-well plates were pretreated for 20 min with varying concentrations of inhibitors and then stimulated for 24 h in a total volume of 400 µL of DMEM containing 0.1 mg/mL of BSA, in the absence or presence of 1 nM interleukin 1β (IL-1) plus 5 μM forskolin (Fk). Thereafter, the supernatants were collected and centrifuged for 5 min at 1000× g. The PGE2 in the supernatant was quantified using an enzyme-linked immunoassay (Enzo Life Sciences, Lörrach, Germany) following the manufacturer’s recommendations.\nStatistical analysis of the data was performed using one-way analysis of variance (ANOVA) followed by a Bonferroni’s post hoc test for multiple comparisons (GraphPad Prism 8.4.3., San Diego, CA, USA). The half maximal effective concentrations (EC50) of the inhibitors were calculated using the same software."}, "[5]": {"target": "T1, human recombinant group VIA phospholipase A2 (GVIA iPLA2) (Homo sapiens, UniProt O60733)", "T1 sequence (O60733 1-806)": "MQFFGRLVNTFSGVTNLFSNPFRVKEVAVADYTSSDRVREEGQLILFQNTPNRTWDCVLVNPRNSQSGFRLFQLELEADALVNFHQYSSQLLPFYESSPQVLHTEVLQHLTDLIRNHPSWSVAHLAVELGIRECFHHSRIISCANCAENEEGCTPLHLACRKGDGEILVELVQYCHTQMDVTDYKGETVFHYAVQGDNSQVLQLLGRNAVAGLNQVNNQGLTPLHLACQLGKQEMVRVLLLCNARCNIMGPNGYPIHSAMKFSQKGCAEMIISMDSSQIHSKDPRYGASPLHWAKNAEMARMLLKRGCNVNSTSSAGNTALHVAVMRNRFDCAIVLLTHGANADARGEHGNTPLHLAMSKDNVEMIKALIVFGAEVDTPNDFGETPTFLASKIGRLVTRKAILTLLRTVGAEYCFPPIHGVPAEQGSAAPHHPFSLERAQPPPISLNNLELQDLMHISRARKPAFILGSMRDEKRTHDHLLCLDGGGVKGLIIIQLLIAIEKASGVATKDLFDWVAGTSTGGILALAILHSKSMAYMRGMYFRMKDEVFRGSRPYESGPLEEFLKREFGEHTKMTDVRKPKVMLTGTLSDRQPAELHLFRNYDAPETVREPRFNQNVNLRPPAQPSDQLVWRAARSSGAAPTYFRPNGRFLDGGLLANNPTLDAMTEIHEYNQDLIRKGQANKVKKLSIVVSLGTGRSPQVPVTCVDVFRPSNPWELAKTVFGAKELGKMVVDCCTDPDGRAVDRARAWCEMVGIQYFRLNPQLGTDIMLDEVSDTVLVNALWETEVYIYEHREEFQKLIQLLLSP", "experiment": "Lipidomics-based mixed micelle PLA2 activity assay, GVIA iPLA2", "type": "biochemical", "details": "mole fraction of inhibitor in total substrate interface required to inhibit enzyme activity by 50%"}, "[6]": {"test_system": "NO formation in cytokine-stimulated rat mesangial cells", "experiment": "IL-1/Fk-stimulated nitrite (NO) formation in rat mesangial cells, Griess assay", "type": "cell-based", "details": "IL-1 plus Fk, 24 h; nitrite in supernatants", "experimental": "Figure S1. Effect of the inhibitor 19a on IL-1/Fk-stimulated nitrite formation in rat mesangial\nCells were pretreated for 20 min with the indicated concentrations of 19a and then stimulated for\n24 h in the absence (-) or presence (+) of 1 nM interleukin 1β (IL-1) plus 5 µM forskolin (Fk).\nNitrite was quantified in supernatants using Griess assay as previously described.1 Data are\npresented as mM of nitrite and are means +/- S.D. (n = 3).\n1β induction of nitric oxide synthase in renal mesangial cells. Eur. J. Pharmacol. 1993,\n(1 picture or pasted object on this page, not shown here)"}, "[7]": {"test_system": "rat-paw carrageenan-induced edema", "experiment": "Rat-paw carrageenan-induced-edema assay", "type": "in vivo", "details": "0.01 mmol/kg, same dose as indomethacin", "experimental": "The anti-inflammatory activities of selected aminobenzothiazole derivatives were determined by employing the rat-paw carrageenan-induced-edema assay, as previously described. Only male animals (180–220 g body weight) were used. Each group was composed of five animals. The animals were divided into three five-membered groups, and all the tested compounds were suspended in water (0.01 mmol/mL/kg body weight), with a few drops of Tween 80, and ground in a mortar before being administered intraperitoneally simultaneously. After treatment with the tested compounds in group 1, a 2nd group was used as a positive control (indomethacin at 0.01 mmol/mL/kg body weight, i.p.), and another group (3rd) served as the control in which water was administered (negative control). The compounds were injected intraperitoneally at the same time as carrageenan was given by intradermal injection. The rats were euthanized 3.5 h post-injection. The weight of the uninjected with carrageenan paw was subtracted from the weight of the injected paw for each animal. The change in paw weight for the treated animals was compared to that for the control animals and expressed as the percent inhibition of edema. The values of CPE % are the means from three different experiments with standard errors of the mean less than 10%. The statistical significance of the results was established with Student’s t-test, for * p < 0.01 and ** p < 0.05. All the animal experiments performed in the manuscript were conducted in compliance with institutional guidelines. Our studies were in accordance with recognized guidelines on animal experimentation (guidelines for the care and use of laboratory animals published by the Greek Government 160/1991, based on EU regulations 86/609). The rats were kept in the Centre of the School of Veterinary Medicine (EL54 BIO42), Aristotle University of Thessaloniki, which is registered by the official state veterinary authorities (presidential degree 56/2013, in harmonization with the European Directive 2010/63/EEC). The experimental protocols were approved by the Animal Ethics Committee of the Prefecture of Central Macedonia (no. 270079/2500)."}, "[8]": {"test_system": "GVIA iPLA2", "design": "method as in PMID 16203828", "details": "in vitro; cited from earlier work"}, "[9]": {"test_system": "hyperalgesia", "design": "method as in PMID 16203828", "details": "in vivo; cited from earlier work"}, "[10]": {"test_system": "spinal PGE2 release", "design": "method as in PMID 16203828", "details": "in vivo; cited from earlier work"}, "[11]": {"test_system": "GIVA cPLA2", "design": "method as in PMID 16203828", "details": "in vitro; cited from earlier work"}},
  "data": [
    {"smiles": "O=C(CCCCc1ccc2ccccc2c1)C(F)(F)F", "note": "[FKGK18, 1,1,1-trifluoro-6-(2-naphthalenyl)-2-hexanone]", "values": [
      {"measurement": "Inhibition of generation of PGE2", "setting": "[1]", "value": "inhibit the generation of PGE2"}
    ]},
    {"smiles": "CCCCC/C=C\\C/C=C\\C/C=C\\C/C=C\\CCCC(=O)C(F)(F)F", "note": "[arachidonoyl trifluoromethyl ketone]", "values": [
      {"measurement": "Effect on allodynia", "setting": "[2]", "value": "modulates allodynia"},
      {"measurement": "Inhibition of cytokine-stimulated generation of PGE2", "setting": "[3]; rat mesangial cells", "value": "inhibits"}
    ]},
    {"smiles": "O=C(CCCCc1ccc2ccccc2c1)c1nc2ccccc2s1", "note": "[Compound 1]", "values": [
      {"measurement": "% inhibition of PGE2 generation", "setting": "[3]; comparison value for compound 1", "value": 85, "unit": "%"},
      {"measurement": "EC50", "setting": "[3]; rat mesangial cells", "value": 710, "unit": "nM"}
    ]},
    {"smiles": "c1ccc2cc(CCCNc3nc4ccccc4s3)ccc2c1", "note": "[Compound 19a, N-(3-(Naphthalen-2-yl)Propyl)Benzo[d]Thiazol-2-Amine]", "values": [
      {"measurement": "inhibition at 3 µM", "setting": "[4]; 3 μM, 1 nM IL-1β plus 5 μM forskolin", "value": "> 80", "unit": "%"},
      {"measurement": "IC50", "setting": "[4]; 0.1 to 3 µM, IL-1β plus forskolin, read-out: EC50 (μM), inhibition of PGE2 generation", "value": 0.118, "unit": "µM"},
      {"measurement": "XI(50) for GVIA iPLA2", "setting": "[5]", "value": 0.03, "unit": "mole fraction"},
      {"measurement": "Effect on NO production", "setting": "[6]", "value": "No effect"},
      {"measurement": "In vivo anti-inflammatory activity compared with indomethacin", "setting": "[7]", "value": "higher than that of indomethacin"},
      {"measurement": "In vivo anti-inflammatory activity compared with indomethacin", "setting": "[7]; listed as GK543", "value": "greater than that of indomethacin"},
      {"measurement": "melting point", "value": "112 to 114", "unit": "°C"}
    ]},
    {"smiles": "O=C(CCCCc1ccc2ccccc2c1)c1nc2ccccc2o1", "note": "[Compound 2]", "values": [
      {"measurement": "EC50", "setting": "[3]; rat mesangial cells", "value": 790, "unit": "nM"}
    ]},
    {"smiles": "CCCCCCCCCCCCCCC(=O)C(=O)NCCCC(=O)OCC", "note": "[AX048, ethyl 4-(2-oxohexadecanamido)butanoate]", "values": [
      {"measurement": "XI(50) for GVIA iPLA2", "setting": "[8]", "value": 0.027, "unit": "mole fraction"},
      {"measurement": "Anti-hyperalgesic activity", "setting": "[9]", "value": "anti-hyperalgesic activity"},
      {"measurement": "Inhibition of spinal PGE2 release", "setting": "[10]", "value": "inhibits spinal PGE2 release"},
      {"measurement": "XI(50) for GIVA cPLA2", "setting": "[11]", "value": 0.022, "unit": "mole fraction"}
    ]}
  ]
}
